The subject of data set [1] is YS strain (TK^+ -VZV). The experiment in a line: Anti-VZV activity, plaque reduction in human fetal pulmonary cells, YS strain. It counts as cell-based, varicella-zoster virus. The note with it: nonresistant strain of VZV (YS, TK^+); human fetal pulmonary cell monolayer, approximately 20 PFU, 5 days at 37 °C, plaque count. The method, then: (§1) Next, the anti-VZV effect of OXT-G will be described in detail by reference to the following Test Example. Anti-VZV activity: • (1) Determination method A monolayer of human fetal pulmonary cells, which had been grown in Eagle minimum essential medium containing 10 % of newborn calf serum, 60 µg/ml of kanamycin and 0.075 % of NaHCO₃, (used as a growth medium) in a 96-well microplate, was inoculated with approximately 20 PFU of various viruses and incubated at 37 °C for 2 hours. After 0.1 ml of 2 % newborn calf serum containing OXT-G was freshly supplied, the incubation was continued at 37 °C for 5 days. Plaques in each well were counted under a microscope and the ratio (%) thereof to the plaque count of a control (no addition) was calculated to prepare a graph. Based on the graph, the median effective dose (ED₅₀) was determined. The employed virus stains were as follows: YS strain: TK^+ strain (carrying thymidine kinase) isolated from a patient of varicella (TK^+ -VZV). […] Thus it is expected as an excellent anti-VZV agent.

The nature of data set [2]: Single-dose intraperitoneal toxicity in the mouse. It counts as in vivo. The note with it: 400 mg/kg intraperitoneally, once. The text has this: OXT-G and a pharmacologically acceptable salt thereof are each characterized by a low toxicity and a low cumulative toxicity upon repeated administration.
Data set [3] concerns YSR strain (TK^- -VZV). The experiment in a line: Anti-VZV activity, plaque reduction in human fetal pulmonary cells, YSR strain. The note with it: resistant strain of VZV (YSR, TK^-, drug-resistant); human fetal pulmonary cell monolayer, approximately 20 PFU, 5 days at 37 °C, plaque count. The data set is classed as cell-based, varicella-zoster virus. The method, then: as §1

Structures are written as SMILES.

On to `Nc1nc2c(ncn2C2OC(CO)C2CO)c(=O)[nH]1` (stereo not drawn) [OXT-G, oxetanocin-G], for which the antiviral effects entry in data set [1] and in data set [3] was “excellent antiviral effects” in each case. The symptom of intoxication result in data set [2] is given as “no symptom of intoxication could be observed”.

Source of the values: patent EP0430108A2, “Use of oxetanocin-G for the treatment of varicella-zoster virus infections” (priority 1989, dated 1991).
